Data as given in patent publication US6797728B2, “Use of intracellular calcium chelators to increase surfactant secretion in the lungs” (Thomas Jefferson University, priority 2000, dated 2004).
Like-named read-outs stand apart in the source and are kept apart here.

Experiments:
alveolar type II cells [1] = experiment: Surfactant secretion assay (secretion of 3H-labeled phospholipid by type II cells); type: cell-based, rat; conditions: for effect of re-adding calcium after overnight depletion on secretagogue-induced PL secretion: Ca2+ added back to 1.64 mM at start of the 2 hr secretion assay; for effect of calcium depletion on secretagogue-stimulated PL secretion: cells in Ca2+-free medium overnight and during the 2 h assay, ATP 500 μM, TG 10 μM, Io 1 μM, PMA 50 ng/ml, BAPTA-AM 25 μM; for effect of removing extracellular Ca2+ during the assay on secretagogue-elicited surfactant secretion: normal medium overnight, Ca2+-free medium for the 2 h assay, FIG. 4; for % PL secreted: BAPTA 25 μM, SP-A 100 ng/ml, alone or together, percentage of 3H-labeled phospholipid secreted, no additions 8.33
Experimental: Freshly isolated type II cells were prepared according to standard techniques, originally described by Dobbs (Dobbs, et al, AM. Rev. Respir. Dis. 134, 141-145, 1986), and later modified by Sen and Chander (Sen and Chander, Biochem. J. 298: 681-687, 1994). The use of these techniques has been previously reported. (Strayer, et al, Ex. Cell Res. 226: 90-97, 1996; Strayer, et al, Rec. Signal Transd. 7: 111-120, 1997). Briefly, lungs of anesthetized rats were cleared of blood and treated with elastase endotracheally (Worthington Biochemical, Freehold, N.J.) to obtain free cells. The cells were separated from lung debris and plated on bacteriological plates coated with normal rat IgG (Sigma Chemical Co., St. Louis, Mo.). After 1 hr, free cells were collected by panning, pelleted, and resuspended (0.8×10^6 cells/ml) in minimum essential medium (MEM)+10% fetal bovine serum (FCS, Life Technologies, Gaithersburg, Md.).
Secretion studies were performed as described by Sen and Chander. (Sen and Chander, Biochem. J. 298: 681-687, 1994). Briefly, 0.8×10^6 alveolar type II cells were cultured for 18 h in MEM with 10% FBS+0.5 μCi of [methyl-^3H]-choline (Amersham, Arlington Heights, Ill.) to label cellular phospholipids (PL) metabolically. Cells were washed to remove non-adherent cells and unincorporated radioactivity. After replacing this medium with fresh MEM, plates were incubated for 15 min. SP-A (100 ng/ml) was added to selected plates, followed by incubation for an additional 15 min.; secretagogues were then added at the appropriate concentrations [control (no addition), ATP (500 μM), TG (10 μM), ionomycin (1 μM), PMA (50 ng/ml)]. At this point (t=0) in each experiment, some samples were removed for analysis of secreted labeled lipids to establish a baseline. Incubation proceeded for an additional 2 h for all other plates. Following this incubation, media were removed and centrifuged (15 min., 300×g) to pellet cells that detached during incubation. These cells were later pooled with those recovered from the plates. Lipids from both media and plates were extracted (Sen and Chander, Biochem. J. 298: 681-687, 1994) after adding [methyl-^14C]-DPPC (Amersham, Arlington Heights, Ill.) as a recovery standard, and egg phosphatidylcholine (Sigma Chemical Co., St. Louis, Mo.) as a carrier lipid. Recovered lipids were dissolved in Scintiverse II fluid (Fisher Scientific, Pittsburgh, Pa.) and the radioactivity of these lipid extracts measured with a scintillation counter (Beckman Instruments, Fullerton, Calif.). ^3H-labeled phospholipid recovery was normalized to recovery of [methyl-^14C]-DPPC. Phospholipid secretion was determined as percent secretion=(cpm in lipids recovered from media×100)/(cpm in lipids recovered from media and plates).

type II cells [2] = experiment: Type II cell viability by trypan blue exclusion; conditions: at the concentrations of FIG. 2; compared to each other and to untreated type II cells
Experimental: (§1) Viability of type II cells was tested both by trypan blue exclusion, and by tetrazolium/formazan assay (Promega Corp., Madison, Wis.), which measures mitochondrial dehydrogenases. These enzymes are only present in active form in living cells and are absent in nonviable cells. […] For such studies, an assay solution containing the tetrazolium compound (3-(4,5-dimethylthiazol-2-yl)-5-(3-carboxymethoxyphenyl)-2-(4-sulfonyl)-2H-tetrazolium, inner salt; MTS) and an electron-coupling reagent (phenazine methosulfate; PMS) in MEM is added to the cells. […] Correction was made for the small effect of BAPTA itself on this reaction by running a parallel assay on plates with no cells.
(§2) In these studies, cellular viability was determined in two ways. Viable cells enumerated by counting trypan blue-excluding cells. […] In addition, cellular viability in BAPTA-AM-treated cultures was measured using the tetrazolium/formazan assay for mitochondrial dehydrogenase.

[3] = test system: [Ca^2+]l in type II cells; experiment: ER (lumenal) calcium concentration, fura2ff fluorescence with Mn2+ quench; type: cell-based, rat; conditions: fura2ff 340/380 nm ratio, Mn2+ added, FIG. 7
Experimental: Type II cells were prepared as described and plated on glass coverslips that had been pretreated with poly-L-lysine (Sigma, 0.01%, 20° C., 15 mins). After incubation overnight at 37° C. in MEM-10% FCS, the cells were washed three times with serum-free MEM and once with loading buffer (121 mM NaCl, 4.7 mM KCl, 1.2 mM KH2P04, 1.2 mM MgSO4, 2% BSA, 10 mM glucose, 20 mM HEPES, 2 mM CaCl2). The cells were loaded in loading buffer containing 10 μM Fura-2FF(AM) (Teflabs, Austin, Tex.) and 0.06% Pluronic Acid (Molecular Probes, Inc.) for two hours with shaking at 37° C. The coverslip was washed in calcium-free imaging buffer (121 mM NaCl, 4.7 mM KCl, 1.2 mM KH2PO4, 1.2 mM MgSO4, 10 mM glucose, 20 mM HEPES), inserted into a thermostatically regulated chamber (37° C.), and mounted on an inverted fluorescence microscope in 1 ml of imaging buffer. Fluorescence imaging following excitation at 340 nm and 380 nm was performed (supra).
During imaging MnCl2 was added at time=0 to a final concentration of 500 μM followed by either SP-A, ionomycin, or TG (final concentrations 100 ng/ml, 1 μM and 4 μM respectively).
Decreases in [Ca^2+]l, rather than increases in [Ca^2+]i, were hypothesized to be the critical regulator of surfactant secretion by all secretagogues, with the exception of PMA. This theory predicts that BAPTA-AM, and other calcium-dependent secretagogues, would decrease [Ca^2+]l, but that PMA would not. Thus, type II cells were loaded with fura2ff. This fluorophore has a much lower affinity for calcium in the μM range than fura2 does, and is therefore used to assess changes in [Ca^2+]l. Type II cells were also treated with Mn^2+, which binds cytoplasmic fura2ff and prevents its binding to Ca^2+. (Dorn, et al, Br. J. Pharmacol. 97: 163-170, 1989; Kuroki, et al, Biochem. J. 115: 115-119, 1991; Miyata, et al, Am. J. Physiol. 261: H1123-H1134, 1991). Any changes in the lumenal free calcium concentration were measured as changes in the ratio of fura2ff excitation at 340 nm to that at 380 nm. […] PMA had no effect.

[4] = test system: [Ca^2+]i in type II cells; experiment: Cytosol free calcium concentration, fura2 digital imaging fluorescence microscopy; type: cell-based, rat; conditions: fura2 340/380 nm ratio, compared to mock-treated cells
Experimental: 10^6 freshly isolated type II cells were added to 35 mm tissue culture plates, each containing a polylysine (Sigma Chemical Co.) coated 25 mm diameter coverslip and incubated (37° C., 5% CO2) for at least 2 hr. Twenty min before use, Fura2/AM (Molecular Probes) was added (final concentration, 3 μM) to each coverslip. After Fura2 loading, the coverslips were washed with cell incubation buffer (121 mM NaCl, 4.7 mM KCl, 1.2 mM KH2PO4, 1.2 mM MgSO4, 2 mM CaCl2, 10 mM glucose, 5 mM NaHCO3, 0.2% BSA, and 10 mM HEPES/NaOH, pH 7.4) and inserted into a thermostatically regulated chamber (37° C.). Cell incubation buffer was added and the whole assembly placed on the stage of a Nikon Diaphot inverted microscope. At appropriate times (see infra), secretagogues in the appropriate concentration (see supra) were added. Fluorescence images of the cells were collected by exciting the cells alternately at 340 and 380 nm and measuring emission at 500 nm using a charge-coupled device camera (Photometrics, Inc.) as described previously. (Rooney, et al, Biol. Chem 264: 17131-17141, 1989). Image acquisition and analysis were done with Macintosh computers running customized image-processing software. The ratio (340/380) of Fura2 excitation was calibrated to [Ca^2+]i as described. (Rooney, et al, Biol. Chem 264: 17131-17141, 1989; Grynkiewicz, et al, J. Biol. Chem. 260: 3440-3450, 1985).

type II cells [5] = test system: type II cells
Experimental: as §1, §2

type II cells [6] = test system: type II cells; remark: listed apart in the source
Experimental: as §1, §2

alveolar type II cells [7] = experiment: Surfactant secretion assay (secretion of 3H-labeled phospholipid by type II cells); type: cell-based, rat; conditions: within 4 hours of treatment; control cells release about 7%
[8] = read-out: affinity of BAPTA for calcium; cited from earlier work

Compound	effect of re-adding calcium after overnight depletion on secretagogue-induced PL secretion (alveolar type II cells [1])	effect of calcium depletion on secretagogue-stimulated PL secretion (alveolar type II cells [1])	effect of removing extracellular Ca2+ during the assay on secretagogue-elicited surfactant secretion (alveolar type II cells [1])	effect on lumenal free calcium concentration [Ca^2+]l [3]	also measured
c1ccc(CN(CCN(Cc2ccccn2)Cc2ccccn2)Cc2ccccn2)nc1 [TPEN, N,N,N′,N′-tetrakis-(2-pyridylmethyl) ethylenediamine]					secretagogue activity (alveolar type II cells [1]; TPEN up to 150 μM, FIG. 2): no secretagogue activity; effect on cell viability (trypan blue-excluding cells) (type II cells [2]): Neither BAPTA-AM nor TPEN at these concentrations had any effect on cell viability
C[C@H](CCC(=O)O)C[C@H](C)C[C@H](C)C(=O)/C=C(\O)[C@H](C)C[C@H](C)C/C=C/[C@@H](C)[C@@H](O)[C@@H](C)[C@@H](O)C[C@@H]1CC[C@@](C)([C@H]2CC[C@@](C)([C@@H](C)O)O2)O1 [Io, ionomycin]	restored	prevented	not significantly altered	decreased [Ca^2+]l	
CC(=O)OCOC(=O)CN(CC(=O)OCOC(C)=O)c1ccccc1OCCOc1ccccc1N(CC(=O)OCOC(C)=O)CC(=O)OCOC(C)=O [BAPTA-AM, 1,2-bis(2-aminophenoxy)ethane-N,N,N, N-tetraacetic acid acetoxymethyl ester]					% PL secreted (alveolar type II cells [1]): 15.47%; effect on cytosol free calcium concentration [Ca^2+]i [4]: caused [Ca^2+]i to decrease somewhat; effect on cell viability (trypan blue-excluding cells) (type II cells [5]): Neither BAPTA-AM nor TPEN at these concentrations had any effect on cell viability; viability of treated type II cells (tetrazolium/formazan) (type II cells [6]): does not differ from that of control cells; stored surfactant released (alveolar type II cells [7]): about ⅔
C/C=C(/C)C(=O)O[C@H]1C(C)=C2[C@H]([C@@H]1OC(=O)CCCCCCC)[C@@](C)(OC(C)=O)C[C@H](OC(=O)CCC)[C@@]1(O)[C@H]2OC(=O)[C@@]1(C)O [TG, thapsigargin]	restored	partially inhibited	Statistically significant but small decreases		
Nc1ncnc2c1ncn2[C@@H]1O[C@H](COP(=O)(O)OP(=O)(O)OP(=O)(O)O)[C@@H](O)[C@H]1O [ATP]		prevented			
O=C(O)CN(CC(=O)O)c1ccccc1OCCOc1ccccc1N(CC(=O)O)CC(=O)O [BAPTA, 1,2-bis(2-aminophenoxy)ethane-N,N,N, N-tetraacetic acid]	restored	prevented BAPTA secretagogue activity	not significantly altered	decreased [Ca^2+]l	surfactant secretion at 5 μM BAPTA (alveolar type II cells [1]; dose-response studies, concentration range of 5 μM): below the threshold; concentrations at which BAPTA stimulates surfactant secretion (powerful secretagogue) (alveolar type II cells [1]; dose-response, FIG. 2): 25 to 100 µM; Kd [8]: 160 nM
CCCCCCCCCCCCCC(=O)O[C@@H]1[C@@H](C)[C@@]2(O)[C@@H](C=C(CO)C[C@]3(O)C(=O)C(C)=C[C@@H]23)[C@@H]2C(C)(C)[C@]12OC(C)=O [PMA, phorbol 12-myristate 13-acetate]	increased PMA-induced secretion, but this effect was not statistically significant	did not alter	Statistically significant but small decreases	no effect	effect on cytosol free calcium concentration [Ca^2+]i [4]: did not alter [Ca^2+]i
surfactant-associated protein-A [SP-A]				increased [Ca^2+]l	% PL secreted (alveolar type II cells [1]): 4.98%; BAPTA-induced surfactant secretion after SP-A pretreatment (alveolar type II cells [1]; SP-A pretreatment, then BAPTA-AM loading concentration 25 μM, versus cells not exposed to SP-A): significantly less surfactant secretion
